Measurements: PubChem BioAssay AID1918931 (Molecular Pharmacology Branch, DTP, NCI, 2023)
pIC50: −log10 of the molar value.

Test system: 138582-337-R-J1-PDC complex spheroid viability
Experiment: Anticancer human tumor 138582-337-R-J1-PDC patient-derived Merkel cell tumor cell line growth inhibition
Conditions: for pIC50: curve of first compound; for viability, T/C: stronger effect = lower value; active means viability on the fitted dose curve at most 10% of control; inactive means the rest
Procedure, shortened: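 Complex spheroids of tumor cells with HUVEC and human MSCs, exposed to iadademstat combined with other agents. Each agent tested in half-log steps from near clinical Cmax (else 10 microM top), DMSO ≤0.25%.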
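Further: spheroids exposed to agents for 7 days.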
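Wherever viability, T/C is given: 100% = DMSO vehicle control viability.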

Nc1ccccc1NC(=O)c1ccc(CNC(=O)OCc2cccnc2)cc1 + NC1CCC(NC2CC2c2ccccc2)CC1
5.99: pIC50 (second compound 1 µM)
inactive: viability, T/C (second compound 0.1 µM, first compound 0.00949 µM) 103% | viability, T/C (second compound 0.1 µM, first compound 0.03 µM) 81.7% | viability, T/C (second compound 0.1 µM, first compound 0.0949 µM) 83.9% | viability, T/C (second compound 0.1 µM, first compound 0.3 µM) 101% | viability, T/C (second compound 0.1 µM, first compound 0.949 µM) 57.1% | viability, T/C (second compound 0.316 µM, first compound 0.00949 µM) 88.8% | viability, T/C (second compound 0.316 µM, first compound 0.03 µM) 76.8% | viability, T/C (second compound 0.316 µM, first compound 0.0949 µM) 79.5% | viability, T/C (second compound 0.316 µM, first compound 0.3 µM) 86.1% | viability, T/C (second compound 0.316 µM, first compound 0.949 µM) 57% | viability, T/C (second compound 1 µM, first compound 0.00949 µM) 96.1% | viability, T/C (second compound 1 µM, first compound 0.03 µM) 80.2% | viability, T/C (second compound 1 µM, first compound 0.0949 µM) 77.3% | viability, T/C (second compound 1 µM, first compound 0.3 µM) 92.5% | viability, T/C (second compound 1 µM, first compound 0.949 µM) 53.5% | viability, T/C (second compound 3.16 µM, first compound 0.00949 µM) 90.5% | viability, T/C (second compound 3.16 µM, first compound 0.03 µM) 82.3% | viability, T/C (second compound 3.16 µM, first compound 0.0949 µM) 74.5% | viability, T/C (second compound 3.16 µM, first compound 0.3 µM) 76.4% | viability, T/C (second compound 3.16 µM, first compound 0.949 µM) 53.5% | viability, T/C (second compound 10 µM, first compound 0.00949 µM) 74.2% | viability, T/C (second compound 10 µM, first compound 0.03 µM) 57.8% | viability, T/C (second compound 10 µM, first compound 0.0949 µM) 62.2% | viability, T/C (second compound 10 µM, first compound 0.3 µM) 35.4% | viability, T/C (second compound 10 µM, first compound 0.949 µM) 17.7%
6.86: pIC50 (second compound 10 µM)
5.96: pIC50 (second compound 0.1 µM) | pIC50 (second compound 0.316 µM)
6.00: pIC50 (second compound 3.16 µM)
active: viability, T/C (second compound 0.1 µM, first compound 3 µM) 1.81% | viability, T/C (second compound 0.316 µM, first compound 3 µM) 1.94% | viability, T/C (second compound 1 µM, first compound 3 µM) 0.81% | viability, T/C (second compound 3.16 µM, first compound 3 µM) 0.82% | viability, T/C (second compound 10 µM, first compound 3 µM) 0.52%

O=C(c1cc(Cc2n[nH]c(=O)c3ccccc23)ccc1F)N1CCN(C(=O)C2CC2)CC1 + NC1CCC(NC2CC2c2ccccc2)CC1
< 5.00: pIC50 (second compound 0.1 µM) | pIC50 (second compound 0.316 µM) | pIC50 (second compound 1 µM) | pIC50 (second compound 3.16 µM) | pIC50 (second compound 10 µM)
inactive: viability, T/C (second compound 0.1 µM, first compound 0.0316 µM) 102% | viability, T/C (second compound 0.1 µM, first compound 0.1 µM) 91.2% | viability, T/C (second compound 0.1 µM, first compound 0.316 µM) 86.7% | viability, T/C (second compound 0.1 µM, first compound 1 µM) 92.7% | viability, T/C (second compound 0.1 µM, first compound 3.16 µM) 84.3% | viability, T/C (second compound 0.1 µM, first compound 10 µM) 95.7% | viability, T/C (second compound 0.316 µM, first compound 0.0316 µM) 99.6% | viability, T/C (second compound 0.316 µM, first compound 0.1 µM) 99.9% | viability, T/C (second compound 0.316 µM, first compound 0.316 µM) 88.1% | viability, T/C (second compound 0.316 µM, first compound 1 µM) 85.8% | viability, T/C (second compound 0.316 µM, first compound 3.16 µM) 80.1% | viability, T/C (second compound 0.316 µM, first compound 10 µM) 103% | viability, T/C (second compound 1 µM, first compound 0.0316 µM) 102% | viability, T/C (second compound 1 µM, first compound 0.1 µM) 98.1% | viability, T/C (second compound 1 µM, first compound 0.316 µM) 92.5% | viability, T/C (second compound 1 µM, first compound 1 µM) 81.1% | viability, T/C (second compound 1 µM, first compound 3.16 µM) 79% | viability, T/C (second compound 1 µM, first compound 10 µM) 104% | viability, T/C (second compound 3.16 µM, first compound 0.0316 µM) 83.8% | viability, T/C (second compound 3.16 µM, first compound 0.1 µM) 98.3% | viability, T/C (second compound 3.16 µM, first compound 0.316 µM) 113% | viability, T/C (second compound 3.16 µM, first compound 1 µM) 76.5% | viability, T/C (second compound 3.16 µM, first compound 3.16 µM) 86.7% | viability, T/C (second compound 3.16 µM, first compound 10 µM) 75.7% | viability, T/C (second compound 10 µM, first compound 0.0316 µM) 78.5% | viability, T/C (second compound 10 µM, first compound 0.1 µM) 104% | viability, T/C (second compound 10 µM, first compound 0.316 µM) 77.7% | viability, T/C (second compound 10 µM, first compound 1 µM) 74.1% | viability, T/C (second compound 10 µM, first compound 3.16 µM) 79.6% | viability, T/C (second compound 10 µM, first compound 10 µM) 63.7%
